Each structure is given as a SMILES string.

T1 sequence (P14902 whole entry): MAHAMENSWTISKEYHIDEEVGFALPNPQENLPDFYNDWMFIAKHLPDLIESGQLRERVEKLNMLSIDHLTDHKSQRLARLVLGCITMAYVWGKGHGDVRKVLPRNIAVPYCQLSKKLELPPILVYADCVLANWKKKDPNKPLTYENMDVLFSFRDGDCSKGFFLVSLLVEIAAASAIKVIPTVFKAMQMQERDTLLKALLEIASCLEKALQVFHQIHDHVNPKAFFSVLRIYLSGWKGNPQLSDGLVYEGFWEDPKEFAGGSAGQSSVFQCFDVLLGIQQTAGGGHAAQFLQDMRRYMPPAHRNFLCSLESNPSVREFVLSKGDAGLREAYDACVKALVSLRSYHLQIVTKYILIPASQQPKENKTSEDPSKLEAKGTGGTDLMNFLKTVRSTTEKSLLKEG

The first assay concerns the target T1, IDO1 (Homo sapiens, UniProt P14902). In words: IDO1 Cellular Assay in Hela Cells Stimulated with IFNγ. Conditions: IFNγ 100 ng/mL, 300 uM L-tryptophan, about 48 hours, fluorescence readout, read-out: IDO1 HELA Cell Assay, IC50. The assay is classed as cell-based. The gist of the method: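 HeLa cells stimulated with 100 ng/mL IFNγ, supplemented with 300 uM L-tryptophan, incubated 48 h at 37° C with ten 3-fold compound dilutions. Unstimulated cells served as Max-E control. Kynurenine detected by fluorescence (ex 400/em 510 nm) after overnight methyl isonipecotate reaction; IC50 by four-parameter logistic fit.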
Turning to `CC(C(=O)Nc1ccc(Cl)cc1)C12CC(NC(=O)OC3CC3)(C1)C2` (single isomer, unassigned) [Example 20, Cyclopropyl (3-(1-((4-chlorophenyl)amino)-1-oxopropan-2-yl)bicyclo [1.1.1]pentan-1-yl) carbamate], the IC50 came to 29.2 nM. With `C[C@H](C(=O)Nc1ccc(F)cc1)C12CC(NC(=O)c3ccc(F)c(Cl)c3)(C1)C2` [Example 48, 3-chloro-4-fluoro-N-[3-[(1S)-2-(4-fluoroanilino)-1-methyl-2-oxo-ethyl]-1-bicyclo[1.1.1]pentanyl]benzamide], the IC50 stood at 1.72 nM. As for `CC(C(=O)Nc1ccc(Cl)cc1)C12CC(NC(=O)c3cccc(C#N)c3)(C1)C2` (single isomer, unassigned) [Example 13, N-(3-(1-((4-chlorophenyl)amino)-1-oxopropan-2-yl)bicyclo[1.1.1]pentan-1-yl)-3-cyanobenzamide], the IC50 worked out at 133 nM. On to `CC(C(=O)Nc1ccc(F)cc1)C12CC(NC(=O)c3cc4ccccc4cn3)(C1)C2` (stereo not shown) [Example 144, N-[3-[2-(4-fluoroanilino)-1-methyl-2-oxo-ethyl]-1-bicyclo[1.1.1]pentanyl]isoquinolin-2-ium-3-carboxamide], for which the IC50 was 463 nM. Consider `O=C(NC1(C23CC(NC(=O)c4ccc(C(F)(F)F)cn4)(C2)C3)CC1)c1ccc(F)cc1` [Example 26, N-(3-(1-(4-fluorobenzamido)cyclopropyl)bicyclo[1.1.1]pentan-1-yl)-5-(trifluoromethyl)picolinamide], for which the IC50 stood at 377 nM. Turning to `O=C(NC12CC(C3(C(=O)Nc4ccc(F)c(F)c4)COC3)(C1)C2)c1cccc(Cl)c1` [Example 105, 3-(3-(3-Chlorobenzamido)bicyclo[1.1.1]pentan-1-yl)-N-(3,4-difluorophenyl)oxetane-3-carboxamide], the half-inhibitory concentration (IC50) came out at 35.8 nM. Consider `Cc1ccc(C(=O)NC23CC([C@H](C)C(=O)Nc4ccc(F)cc4)(C2)C3)cc1Cl` [Example 49, 3-chloro-N-[3-[(1S)-2-(4-fluoroanilino)-1-methyl-2-oxo-ethyl]-1-bicyclo[1.1.1]pentanyl]-4-methyl-benzamide], for which the half-maximal inhibitory concentration (IC50) came to 250 nM. As to `C[C@H](C(=O)Nc1ccc(F)cc1)C12CC(NC(=O)c3cnc(Cl)c(Cl)c3)(C1)C2` [Example 63, 5,6-dichloro-N-[3-[(1S)-2-(4-fluoroanilino)-1-methyl-2-oxo-ethyl]-1-bicyclo[1.1.1]pentanyl]pyridin-1-ium-3-carboxamide], the IC50 worked out at 11.4 nM. On to `CC(C(=O)Nc1ccc(F)cc1)C12CC(NC(=O)c3noc4c3CCCC4)(C1)C2` (stereo not shown) [Example 115, N-[3-[2-(4-fluoroanilino)-1-methyl-2-oxo-ethyl]-1-bicyclo[1.1.1]pentanyl]-4,5,6,7-tetrahydro-1,2-benzoxazole-3-carboxamide], for which the IC50 was determined as 67 nM. For the compound `Cc1ccc(C(=O)NC23CC([C@@H](C)C(=O)Nc4ccc(F)cc4)(C2)C3)cc1Cl` [Example 44, 3-chloro-N-[3-[(1R)-2-(4-fluoroanilino)-1-methyl-2-oxo-ethyl]-1-bicyclo[1.1.1]pentanyl]-4-methyl-benzamide], the IC50 came to 2.28 nM. For the compound `CC(C(=O)Nc1ccc(F)cc1)C12CC(NC(=O)c3ccccn3)(C1)C2` (stereo not shown) [Example 129, N-[3-[2-(4-fluoroanilino)-1-methyl-2-oxo-ethyl]-1-bicyclo[1.1.1]pentanyl]pyridin-1-ium-2-carboxamide], the IC50 came to 232 nM. In the case of `O=C(NC12CC(C3(C(=O)Nc4ccc(F)cc4)COC3)(C1)C2)c1cccc(Cl)c1` [Example 104, 3-(3-(3-Chlorobenzamido)bicyclo[1.1.1]pentan-1-yl)-N-(4-fluorophenyl)oxetane-3-carboxamide], the IC50 worked out at 20.7 nM.

Take `C[C@H](C(=O)Nc1ccc(F)cc1)C12CC(NC(=O)c3cccc(C(F)(F)F)c3)(C1)C2` [Example 62, N-[3-[(1S)-2-(4-fluoroanilino)-1-methyl-2-oxo-ethyl]-1-bicyclo[1.1.1]pentanyl]-3-(trifluoromethyl)benzamide]: the IC50 was 30.9 nM. On to `Cc1c(Cl)cccc1C(=O)NC12CC([C@H](C)C(=O)Nc3ccc(F)cc3)(C1)C2` [Example 53, 3-chloro-N-[3-[(1S)-2-(4-fluoroanilino)-1-methyl-2-oxo-ethyl]-1-bicyclo[1.1.1]pentanyl]-2-methyl-benzamide], for which the IC50 stood at 123 nM.

For `CC(C)(NC(=O)c1ccc(F)cc1)C12CC(NC(=O)c3ccc(Cl)c(Cl)c3)(C1)C2` [Example 103, 3,4-Dichloro-N-(3-(2-(4-fluorobenzamido)propan-2-yl)bicyclo[1.1.1]pentan-1-yl)benzamide], the 50% inhibitory concentration (IC50) came out at 46.9 nM. On the same count and under the same terms, next, `C[C@H](C(=O)Nc1ccc(F)cc1)C12CC(NC(=O)Nc3cccc(Cl)c3)(C1)C2` [Example 81, (S)-2-(3-(3-(3-chlorophenyl)ureido)bicyclo [1.1.1]pentan-1-yl)-N-(4-fluorophenyl)propanamide]: 15.4 nM; `CC(C(=O)Nc1ccc(Cl)nc1)C12CC(NC(=O)c3cccc(Cl)c3)(C1)C2` (single isomer, unassigned) [Example 16, 3-chloro-N-(3-(1-((6-chloropyridin-3-yl)amino)-1-oxopropan-2-yl)bicyclo[1.1.1]pentan-1-yl)benzamide]: 183 nM. Turning to `CC(C(=O)Nc1ccc(F)cc1)C12CC(NC(=O)c3cc4ccccn4c3)(C1)C2` (stereo not shown) [Example 116, N-[3-[2-(4-fluoroanilino)-1-methyl-2-oxo-ethyl]-1-bicyclo[1.1.1]pentanyl]indolizine-2-carboxamide], the IC50 came out at 69.2 nM. On to `C[C@H](C(=O)Nc1cccc(C(F)(F)F)c1)C12CC(NC(=O)c3ccc(Cl)c(Cl)c3)(C1)C2` [Example 99, (S)-3,4-dichloro-N-(3-(1-oxo-1-((3-(trifluoromethyl)phenyl)amino)propan-2-yl)bicyclo[1.1.1]pentan-1-yl)benzamide], for which the IC50 amounted to 111 nM.

As to `N#Cc1cccc(C(=O)NC23CC(C4(C(=O)Nc5ccc(F)cc5)CCC4)(C2)C3)c1` [Example 4, 3-cyano-N-(3-(1-((4-fluorophenyl)carbamoyl)cyclobutyl)bicyclo[1.1.1]pentan-1-yl)benzamide], the IC50 is 47.8 nM.

In the case of `C[C@H](C(=O)Nc1ccc(F)cc1)C12CC(NC(=O)c3ccc(F)c(F)c3)(C1)C2` [Example 69, (S)-3,4-Difluoro-N-(3-(1-((4-fluorophenyl)amino)-1-oxopropan-2-yl)bicyclo[1.1.1]pentan-1-yl)benzamide], the IC50 is 23.6 nM. `Cc1c(Cl)cccc1NC(=O)NC12CC([C@H](C)C(=O)Nc3ccc(F)cc3)(C1)C2` [Example 84, (S)-2-(3-(3-(3-chloro-2-methylphenyl)ureido)bicyclo [1.1.1]pentan-1-yl)-N-(4-fluorophenyl)propanamide]: the IC50 is 77.2 nM. Same read-out and setting: next, `C[C@H](C(=O)Nc1ccc(F)cc1)C12CC(NC(=O)Nc3ccc(F)c(F)c3)(C1)C2` [Example 82, (S)-2-(3-(3-(3,4-difluorophenyl)ureido)bicyclo[1.1.1]pentan-1-yl)-N-(4-fluorophenyl)propanamide]: 30.3 nM; `C[C@@H](C(=O)Nc1ccc(F)cc1)C12CC(NC(=O)c3cc(F)cc(Cl)c3)(C1)C2` [Example 40, 3-chloro-5-fluoro-N-[3-[(1R)-2-(4-fluoroanilino)-1-methyl-2-oxo-ethyl]-1-bicyclo[1.1.1]pentanyl]benzamide]: 2.35 nM.

The next assay concerns the target T1, IDO1. In words: IDO1 Human whole blood Assay. The assay is classed as cell-based. On the set-up: Human whole blood was drawn in sodium heparin coated tubes from healthy internal donors; from tissue; host or cells: Human whole blood from healthy donors, stimulated with LPS and IFNγ. The conditions noted are these: LPS and IFNγ 100 ng/mL, 18 h, kynurenine by LC/MS/MS. The procedure:
Compounds to be tested were serially diluted in ten 3-fold steps in DMSO starting from 10 mM. 3 μL of compound dilutions or DMSO alone were then dispensed from the dilution plate into a polypropylene 96-well assay plate containing 97 μL of RPMI using an Echo 555 acoustic liquid handler (Labcyte). LPS and IFNγ was prepared in RPMI to a 10× of final conc. (1000 ng/mL), final concentration is 100 ng/mL.
Human whole blood was drawn in sodium heparin coated tubes from healthy internal donors. Two hundred forty μL of blood was transferred to each of the wells of a v-bottom 96 well plate. Thirty μL of compound was transferred from intermediate dilution plate, and incubated for 15 min. Thirty μL from stimulants was then transferred to blood and mixed thoroughly. Plate was covered with breathable membrane and incubated at 37° C. for overnight (18 h).
On day 2 isotope labeled standard of kynurenine and tryptophan was made in water at 10× concentration and 30 μL was added to the blood at 3 μM final concentration. The assay plates were centrifuged at 300×G for 10 min with no brake to separate plasma from red blood cells. Sixty μL of plasma samples was removed without disturbing red blood cells. Plasma was diluted with RPMI in 1:1 ratio and proteins were precipitated out with two volume of acetonitrile. The plates were centrifuged at 4000×G for 60 min. Twenty μL of supernatant was carefully transferred to a 384 well plate containing 40 μL of 0.1% formic acid in water and analyzed by LC/MS/MS.
LC/MS/MS analyses were performed using Thermo Fisher's LX4-TSQ Quantum Ultra system. This system consists of four Agilent binary high-performance liquid chromatography (HPLC) pumps and a TSQ Quantum Ultra triple quadruple MS/MS instrument. For each sample, 5 μL were injected onto an Atlantis T3 column (2.1 mm×150 mm, 3 μm particle size) from Waters. The mobile phase gradient pumped at 0.8 mL/min was used to elute the analytes from the column at 25° C. The elution started at 0% B increasing linearly to 25% B at 6.5 min, holding at 25% for 1 min, re-equilibrating to 10 min. Mobile phase A consisted of 0.1% formic acid in water. Mobile phase B consisted of 0.1% of formic acid in acetonitrile. Data was acquired in positive mode using a HESI interface. The operational parameters for the TSQ Quantum Ultra instrument were a spray voltage of 4000 V, capillary temperature of 380° C., vaporizer temperature 400° C., shealth gas 60 arbitrary units, Aux gas 20 arbitrary units, tube lens 85 and collision gas 1.2 mTorr. SRM chromatograms of kynurenine (Q1: 209.2>Q3:94.0) and internal standard (Q1: 215.3>Q3:98.2) were collected for 90 sec. The peak area was integrated by Xcalibur Quan software. The ratios between the kynurenine generated in the reaction and 2D6-Kynurenine spiked-in internal standard were used to generate percentage inhibition and IC50 values. Compounds were titrated and IC50's were calculated by 4 parameter sigmoidal curve fitting formula.
The biological activity data of selective compounds using the IDO1 human whole blood assay described above are summarized in the table below.
The compound `C[C@H](C(=O)Nc1ccc(F)cc1)C12CC(NC(=O)OC3CCCC3)(C1)C2` [Example 77, cyclopentyl (S)-(3-(1-((4-fluorophenyl)amino)-1-oxopropan-2-yl)bicyclo[1.1.1]pentan-1-yl)carbamate] came in with an IC50 of 452 nM.

Usually IC50 stands for the concentration that inhibits the measured activity by half.

The record behind these values is US11478461B2, “[1.1.1] bicyclo compounds as indoleamine 2,3-dioxygenase inhibitors” (Merck Sharp & Dohme Corp., priority 2018, dated 2022).
